BindingDB's records for doi:10.1021/jm0010623 (Bayer, 2001)

What was measured:
[1] = target: DNA gyrase (Micrococcus luteus); assay: Antibacterial activity against Micrococcus luteus DNA gyrase.
[2] = target: DNA gyrase (Escherichia coli); assay: Antibacterial activity against Escherichia coli DNA gyrase
[3] = target: DNA topoisomerase I (Escherichia coli); assay: Antibacterial activity against Escherichia coli DNA topoisomerase I

| IC50 [1] | IC50 [2] | IC50 [3] | Compound |
| --- | --- | --- | --- |
| 62500 nM | – | – | COC(=O)c1c(Br)c(OC)cc(O)c1CSC[C@@H](Nc1nc(-c2ccc([N+](=O)[O-])cc2)cs1)C1=NOCCO1 |
| 326 nM | 489 nM | 195000 nM | COC(=O)c1c(Br)c(OC)cc(O)c1CSC[C@H](Nc1nc(-c2ccc([N+](=O)[O-])cc2)cs1)C(=O)OC [BAY-507950] |
| 625 nM | 781 nM | 187000 nM | COC(=O)c1c(Br)c(OC)cc(O)c1CSC[C@H](Nc1nc(-c2ccc([N+](=O)[O-])cc2)cs1)C1=NOCCO1 [BAY-507952] |
| 157 nM | 157 nM | 188000 nM | COC(=O)c1c(Br)c(OC)cc(O)c1CSC[C@H](Nc1nc(-c2ccc([N+](=O)[O-])cc2)cs1)c1nc(C)no1 [Ro-616653] |
